The subject of the assay is P388 leukemia ip, CD2F1 mice, survival T/C. Description: NCI In Vivo Anticancer Drug Screen. Data for tumor model P388 Leukemia (intraperitoneal) in CD2F1 (CDF1) mice. The conditions noted are these: endpoint: median survival time, higher = longer survival. A digest of the protocol:
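Mice carrying the transplanted tumor received test compound or vehicle. Survival was recorded in each group, and the value is the treated-group measurement divided by that of the vehicle-treated control group.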

Where [1] appears, read: dose: 50.0 mg/kg/injection, schedule: Q01DX009 (ip), vehicle: saline with Tween-80.
Where [2] appears, read: dose: 100.0 mg/kg/injection, schedule: Q01DX009 (ip), vehicle: saline with Tween-80.
[3] abbreviates: dose: 200.0 mg/kg/injection, schedule: Q01DX009 (ip), vehicle: saline with Tween-80.
Setting [4] is: dose: 50.0 mg/kg/injection, schedule: Q01DX005 (ip), vehicle: saline with Tween-80.
[5] abbreviates: dose: 200.0 mg/kg/injection, schedule: Q01DX005 (ip), vehicle: saline with Tween-80.
The mark [6] stands for this setting: dose: 60.0 mg/kg/injection, schedule: Q01DX005 (ip), vehicle: saline with Tween-80.
Setting [7] is: dose: 120.0 mg/kg/injection, schedule: Q01DX005 (ip), vehicle: saline with Tween-80.
The mark [8] stands for this setting: dose: 240.0 mg/kg/injection, schedule: Q01DX005 (ip), vehicle: saline with Tween-80.
Setting [9] is: dose: 50.0 mg/kg/injection, schedule: Q04DX003 (ip), vehicle: Klucel (hydroxypropylcellulose) (HPC).
Setting [10] is: dose: 100.0 mg/kg/injection, schedule: Q04DX003 (ip), vehicle: Klucel (hydroxypropylcellulose) (HPC).
Where [11] appears, read: dose: 200.0 mg/kg/injection, schedule: Q04DX003 (ip), vehicle: Klucel (hydroxypropylcellulose) (HPC).
Where [12] appears, read: dose: 60.0 mg/kg/injection, schedule: Q01DX005 (ip), vehicle: saline.
Setting [13] is: dose: 120.0 mg/kg/injection, schedule: Q01DX005 (ip), vehicle: saline.

Values joined by “and” are separate entries in the source; they are usually repeats but may differ in a detail not shown here. Equal values may be shown once. Toxic doses and inconclusive results are not listed.

On to `O=C(O)c1ccccc1C(=O)O`, for which the T/C (dose: 12.5 mg/kg/injection, schedule: Q01DX009 (ip), vehicle: water) is 102 % of control; the T/C (dose: 25.0 mg/kg/injection, schedule: Q01DX009 (ip), vehicle: water) is 102 % of control; the T/C (dose: 50.0 mg/kg/injection, schedule: Q01DX009 (ip), vehicle: water) was 98 % of control; the T/C (dose: 100.0 mg/kg/injection, schedule: Q01DX009 (ip), vehicle: water) is 92 % of control; the T/C (dose: 200.0 mg/kg/injection, schedule: Q01DX009 (ip), vehicle: water) was 88 % of control.
`C/C=C(/C)C(=O)O[C@H]1C[C@H](C(C)C)c2cc(C)c(O)cc2[C@H]1C`: the T/C (dose: 57.5 mg/kg/injection, schedule: Q01DX001 (ip), vehicle: Klucel (hydroxypropylcellulose) (HPC)) was 100 % of control; the T/C (dose: 115.0 mg/kg/injection, schedule: Q01DX001 (ip), vehicle: Klucel (hydroxypropylcellulose) (HPC)) is 97 % of control; the T/C (dose: 230.0 mg/kg/injection, schedule: Q01DX001 (ip), vehicle: Klucel (hydroxypropylcellulose) (HPC)) is 99 % of control.
`Cc1cc(=O)c(C#N)c(C)s1`: the T/C (dose: 100.0 mg/kg/injection, schedule: Q04DX002 (ip), vehicle: saline with Tween-80) was 107 % of control; the T/C (dose: 200.0 mg/kg/injection, schedule: Q04DX002 (ip), vehicle: saline with Tween-80) is 100 % of control; the T/C (dose: 400.0 mg/kg/injection, schedule: Q04DX002 (ip), vehicle: saline with Tween-80) is 110 % of control.
Turning to `NC/C(=N\Nc1ccc([N+](=O)[O-])cc1[N+](=O)[O-])c1ccccc1`, the T/C runs as follows: (dose: 100.0 mg/kg/injection, schedule: Q04DX003 (ip), vehicle: saline) 100 % of control; (dose: 200.0 mg/kg/injection, schedule: Q04DX003 (ip), vehicle: saline) 113 % of control; (dose: 400.0 mg/kg/injection, schedule: Q04DX003 (ip), vehicle: saline) 95 % of control.
In the case of `c1ccc(O[Si](Oc2ccccc2)(Oc2ccccc2)Oc2ccccc2)cc1`, the T/C (dose: 25.0 mg/kg/injection, schedule: Q01DX009 (ip), vehicle: other) was 86 % of control; the T/C (dose: 50.0 mg/kg/injection, schedule: Q01DX009 (ip), vehicle: other) was 96 % of control; the T/C (dose: 100.0 mg/kg/injection, schedule: Q01DX009 (ip), vehicle: other) is 99 % of control.
For the compound `CC1OC(O[C@@H]2OC=C(C=O)[C@@]3(O)CC[C@H](C)[C@@H]23)C(O)C(O)C1O` (stereo partly specified), the T/C is 100 % of control (dose: 6.25 mg/kg/injection, schedule: Q01DX005 (ip), vehicle: Klucel (hydroxypropylcellulose) (HPC)); 116 % of control (dose: 12.5 mg/kg/injection, schedule: Q01DX005 (ip), vehicle: Klucel (hydroxypropylcellulose) (HPC)); 95 % of control (dose: 25.0 mg/kg/injection, schedule: Q01DX005 (ip), vehicle: Klucel (hydroxypropylcellulose) (HPC)); 87 % of control (dose: 50.0 mg/kg/injection, schedule: Q01DX005 (ip), vehicle: Klucel (hydroxypropylcellulose) (HPC)).
Take `CCOc1ccc(N=c2ccn3ccccc3c2)cc1`: the T/C is 102 % of control (dose: 6.25 mg/kg/injection, schedule: Q01DX009 (ip), vehicle: saline with Tween-80); 110 % of control (dose: 12.5 mg/kg/injection, schedule: Q01DX009 (ip), vehicle: saline with Tween-80); 111 % of control (dose: 25.0 mg/kg/injection, schedule: Q01DX009 (ip), vehicle: saline with Tween-80).
Regarding `CCCCCCCCCCCCCCCCCCCCCC(=O)OC`, the T/C under setting [1] is 100 % of control; the T/C under setting [2] was 100 % of control; the T/C (dose: 100.0 mg/kg/injection, schedule: Q04DX003 (ip), vehicle: saline with Tween-80) is 91 % of control; the T/C under setting [3] was 100 % of control; the T/C (dose: 200.0 mg/kg/injection, schedule: Q04DX003 (ip), vehicle: saline with Tween-80) is 87 % of control.
`O=[N+]([O-])c1ccc(CS(=O)(=O)OCCCl)cc1`: the T/C was 98 % of control under setting [4]; 98 % of control (dose: 100.0 mg/kg/injection, schedule: Q01DX005 (ip), vehicle: saline with Tween-80); 94 % of control under setting [5].
Turning to `CN(C)c1c2c(oc(=O)c1Cl)-c1ccccc1SCC2`, the T/C was 101 % of control under setting [6], 100 % of control under setting [7] and 91 % of control under setting [8].
`FC(F)(F)c1ccc2c(c1)Nc1ccccc1S2`: the T/C by setting is: (dose: 12.5 mg/kg/injection, schedule: Q04DX003 (ip), vehicle: Klucel (hydroxypropylcellulose) (HPC)) 100 % of control and 105 % of control; (dose: 25.0 mg/kg/injection, schedule: Q04DX003 (ip), vehicle: Klucel (hydroxypropylcellulose) (HPC)) 103 % of control; under setting [9], 108 % of control and 109 % of control; under setting [10], 108 % of control and 118 % of control; under setting [11], 114 % of control and 116 % of control.
Regarding `O=C1CCCC2=C1C(c1ccccc1)/C(=N/O)O2` (stereo unspecified), the T/C under setting [9] was 97 % of control; the T/C under setting [10] is 101 % of control; the T/C under setting [11] is 100 % of control and 90 % of control.
For `CCOC(=O)c1cn(CC)c2c(ccc3cnccc32)c1=O`, the T/C is 103 % of control (dose: 60.0 mg/kg/injection, schedule: Q01DX005 (ip), vehicle: Klucel (hydroxypropylcellulose) (HPC)); 100 % of control (dose: 120.0 mg/kg/injection, schedule: Q01DX005 (ip), vehicle: Klucel (hydroxypropylcellulose) (HPC)); 98 % of control (dose: 240.0 mg/kg/injection, schedule: Q01DX005 (ip), vehicle: Klucel (hydroxypropylcellulose) (HPC)).
For the compound `CCSC(CC(C)=O)c1ccccc1` (stereo unspecified), the T/C is 108 % of control under setting [1], 116 % of control under setting [2] and 105 % of control under setting [3].
Turning to `COC(C(=O)CN(C)C)(c1ccccc1)c1ccccc1`, the T/C under setting [12] was 107 % of control; the T/C under setting [13] was 99 % of control; the T/C (dose: 240.0 mg/kg/injection, schedule: Q01DX005 (ip), vehicle: saline) was 105 % of control.
In the case of `N#CCCNNc1ccccc1`, the T/C is 100 % of control (dose: 50.0 mg/kg/injection, schedule: Q01DX001 (ip), vehicle: saline); 106 % of control (dose: 100.0 mg/kg/injection, schedule: Q01DX001 (ip), vehicle: saline); 97 % of control (dose: 200.0 mg/kg/injection, schedule: Q01DX001 (ip), vehicle: saline).
For `COCC1N=C(COCc2ccccc2)OC1c1ccccc1` (stereo unspecified), the T/C under setting [6] was 100 % of control, the T/C under setting [7] is 95 % of control and the T/C under setting [8] is 100 % of control.
Consider `O=C1NN=C(c2ccccc2)SC1c1ccccc1` (stereo unspecified), for which the T/C (dose: 12.5 mg/kg/injection, schedule: Q01DX005 (ip), vehicle: saline with Tween-80) is 93 % of control; the T/C (dose: 25.0 mg/kg/injection, schedule: Q01DX005 (ip), vehicle: saline with Tween-80) is 95 % of control; the T/C under setting [4] was 90 % of control and 92 % of control; the T/C under setting [5] was 90 % of control.
In the case of `CCOC(=O)CC(N)/C(C)=N\O` (stereo unspecified), the T/C by setting is: (dose: 60.0 mg/kg/injection, schedule: Q01DX005 (ip), vehicle: Klucel + Tween-80) 104 % of control; (dose: 120.0 mg/kg/injection, schedule: Q01DX005 (ip), vehicle: Klucel + Tween-80) 100 % of control; (dose: 240.0 mg/kg/injection, schedule: Q01DX005 (ip), vehicle: Klucel + Tween-80) 100 % of control.
For the compound `O=C(Nc1cc(S(=O)(=O)O)cc2cc(S(=O)(=O)O)c(N=Nc3cc(Nc4nc(Cl)nc(Nc5ccc(S(=O)(=O)O)cc5)n4)ccc3S(=O)(=O)O)c(O)c12)c1ccccc1`, the T/C is 106 % of control under setting [12] and 102 % of control under setting [13].
For `CC[C@@H](C)[C@@H]1NC(=O)C(NC(=O)C(CC(C)C)N(C)C(=O)C2CCCN2C(=O)C(C)O)C(C)OC(=O)C(Cc2ccc(OC)cc2)N(C)C(=O)C2CCCN2C(=O)C(CC(C)C)NC(=O)C(C)C(=O)C(C(C)C)OC(=O)C[C@H]1O` (stereo partly specified), the T/C by setting is: (dose: 0.03 mg/kg/injection, schedule: Q01DX009 (ip), vehicle: none) 171 % of control; (dose: 10.0 micrograms/kg/injection, schedule: Q01DX009 (ip), vehicle: distilled water + alcohol) 112 % of control; (dose: 20.0 micrograms/kg/injection, schedule: Q01DX009 (ip), vehicle: distilled water + alcohol) 112 % of control; (dose: 80.0 micrograms/kg/injection, schedule: Q01DX009 (ip), vehicle: distilled water + alcohol) 155 % of control.

The values are drawn from PubChem BioAssay AID330 (DTP/NCI, 2004).
